Experimental data from the supplement of paper PMC11061612.

Assays:
Assay in all cases: Bliss excess, mean over the matrix (fraction); higher = more synergy
[1] = system: PC-3_[JPC-3] (Lung Adenocarcinoma)
Summary of the method: (§1)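 Cell lines in DMEM/F12 or RPMI with 10% FBS were plated in 1536-well plates, held 24 hours at 37°C, 5% CO2, then given two-drug dose matrices for 72 hours (DMSO typically 0.2%). Viability was read by CellTiter-Glo 2.0 luminescence and scaled as inhibition from 0 (vehicle wells) to 1 (blank wells). Combination Emax is the second-highest inhibition in the matrix; Bliss excess is observed combination effect minus expected EA + EB − EA·EB, EA and EB being single-agent effects.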

[2] = system: VAL (B-Cell Non-Hodgkin's Lymphoma)
Summary of the method: as §1

[3] = system: TE-8 (Esophageal Squamous Cell Carcinoma)
Summary of the method: as §1

[4] = system: RCM-1 (Colorectal Carcinoma)
Summary of the method: as §1

[5] = system: MKN45 (Gastric Carcinoma)
Summary of the method: as §1

WM793B (Melanoma) = system: WM793B (Melanoma)
Summary of the method: as §1

[6] = system: SU-DHL-10 (B-Cell Non-Hodgkin's Lymphoma)
Summary of the method: as §1

[7] = system: PANC-03-27 (Pancreatic Carcinoma)
Summary of the method: as §1

[8] = system: MFE-280 (Endometrial Carcinoma)
Summary of the method: as §1

SF268 (Low Grade Glioma) = system: SF268 (Low Grade Glioma)
Summary of the method: as §1

[9] = system: NCI-H23 (Lung Adenocarcinoma)
Summary of the method: as §1

[10] = system: OPM-2 (Plasma Cell Myeloma)
Summary of the method: as §1

[11] = system: LK-2 (Squamous Cell Lung Carcinoma)
Summary of the method: as §1

[12] = system: 23132-87 (Gastric Carcinoma)
Summary of the method: as §1

[13] = system: RKN (Other Solid Carcinomas)
Summary of the method: as §1

[14] = system: FADU (Head and Neck Carcinoma)
Summary of the method: as §1

[15] = system: COLO-680N (Esophageal Squamous Cell Carcinoma)
Summary of the method: as §1

LN-229 (Glioblastoma) = system: LN-229 (Glioblastoma)
Summary of the method: as §1

[16] = system: LXF-289 (Lung Adenocarcinoma)
Summary of the method: as §1

[17] = system: GP5d (Colorectal Carcinoma)
Summary of the method: as §1

Compound	Bliss excess [1]	Bliss excess [2]	Bliss excess [3]	Bliss excess [4]	Bliss excess [5]	Bliss excess (WM793B (Melanoma))	Bliss excess [6]	Bliss excess [7]	Bliss excess [8]	Bliss excess (SF268 (Low Grade Glioma))	Bliss excess [9]	Bliss excess [10]	Bliss excess [11]	Bliss excess [12]	Bliss excess [13]	Bliss excess [14]	Bliss excess [15]	Bliss excess (LN-229 (Glioblastoma))	Bliss excess [16]	Bliss excess [17]
NC1(C(=O)N[C@@H](CCO)c2ccc(Cl)cc2)CCN(c2ncnc3[nH]ccc23)CC1 [Capivasertib] + CC(=O)c1c(C)c2cnc(Nc3ccc(N4CCNCC4)cn3)nc2n(C2CCCC2)c1=O [Palbociclib] (first compound max 10 µM, 7x7, partner max 10 µM)	0.002	-0.0051	-0.0254	-0.0058	0.0256	-0.0375	0.0478	-0.0187	-0.0624	-0.055	0.008	0.0472	0.0401	-0.0183	-0.0803	-0.0259	-0.0467	-0.0387	0.0199	-0.018
NC1(C(=O)N[C@@H](CCO)c2ccc(Cl)cc2)CCN(c2ncnc3[nH]ccc23)CC1 [Capivasertib] + CC(C)n1c(=O)n(C)c2cnc3cc(F)c(-c4ccc(OCCCN5CCCCC5)nc4)cc3c21 [AZD1390] (first compound max 10 µM, 7x7, partner max 0.3 µM)	-0.0982	-0.0887	-0.0571	-0.0274	-0.0646	-0.0826	0.0402	0.0162	-0.0763	-0.0398	-0.0484	-0.0346	-0.0165	-0.055	-0.0477	-0.0562	-0.0403	-0.0755	-0.0825	-0.0843
NC1(C(=O)N[C@@H](CCO)c2ccc(Cl)cc2)CCN(c2ncnc3[nH]ccc23)CC1 [Capivasertib] + CCN(CCO)CCCOc1ccc2c(Nc3cc(CC(=O)Nc4cccc(F)c4)[nH]n3)ncnc2c1 [AZD2811] (first compound max 10 µM, 7x7, partner max 1 µM)	-0.0168	-0.162	-0.0406	-0.0426	0.0383	0.002	-0.0466	-0.0068	-0.0112	-0.0667	0.0232	0.0027	-0.0303	0.008	-0.0711	-0.0125	-0.0009	-0.0413	0.0856	-0.0899
NC1(C(=O)N[C@@H](CCO)c2ccc(Cl)cc2)CCN(c2ncnc3[nH]ccc23)CC1 [Capivasertib] + COc1nnc2ccc(N3CCC(c4ccc(OCCN5CCN(C)C(=O)[C@H]5C)cc4)CC3)nn12 [AZD5153] (first compound max 10 µM, 7x7, partner max 1 µM)	-0.0186	-0.0867	-0.0718	0.0153	-0.0587	-0.0115	-0.027	-0.007	-0.0126	0.0881	-0.0038	-0.0129	0.0566	0.0623	-0.0451	0.032	0.0355	-0.0313	0.0995	0.0292
NC1(C(=O)N[C@@H](CCO)c2ccc(Cl)cc2)CCN(c2ncnc3[nH]ccc23)CC1 [Capivasertib] + C[C@@H]1COCCN1C2=NC(=NC(=C2)C3(CC3)[S@](=N)(=O)C)C4=C5C=CNC5=NC=C4 [AZD6738] (first compound max 10 µM, 7x7, partner max 10 µM)	-0.0356	-0.0735	-0.0784	-0.0863	-0.0553	-0.0919	-0.0359	-0.0537	-0.0742	-0.0617	-0.0434	-0.0746	-0.0189	0.0024	-0.124	0.0096	-0.0158	-0.0405	-0.0889	-0.103
NC1(C(=O)N[C@@H](CCO)c2ccc(Cl)cc2)CCN(c2ncnc3[nH]ccc23)CC1 [Capivasertib] + Cn1cnc2c(F)c(Nc3ccc(Br)cc3Cl)c(C(=O)NOCCO)cc21 [Selumetinib] (first compound max 10 µM, 7x7, partner max 10 µM)	0.0268	-0.0242	-0.0324	0.019	-0.0478	0.0402	0.0269	0.0728	0.0212	-0.0651	0.0101	0.0515	0.0313	0.0687	0.0373	-0.0297	0.028	0.0437	0.0075	-0.0427
Cc1nc(Nc2ncc(C(=O)Nc3c(C)cccc3Cl)s2)cc(N2CCN(CCO)CC2)n1 [Dasatinib] + CC(=O)Nc1cccc(-n2c(=O)n(C3CC3)c(=O)c3c(Nc4ccc(I)cc4F)n(C)c(=O)c(C)c32)c1 [Trametinib] (first compound max 2 µM, 7x7, partner max 1 µM)	-0.0708	-0.0543	-0.0436	0.018	-0.0069	-0.0015	0.0745	0.0178	-0.0004	-0.073	0.0225	0.0108	0.0113	-0.045	0.0011	-0.0972	0.0389	-0.0025	-0.0439	-0.0254
COc1cccc2c1C(=O)c1c(O)c3c(c(O)c1C2=O)C[C@@](O)(C(=O)CO)C[C@@H]3O[C@H]1C[C@H](N)[C@H](O)[C@H](C)O1 [Doxorubicin] + Cc1cc2ncnn2cc1Nc1ncc2c(n1)n(C1CCOCC1)c(=O)n2C [AZD7648] (first compound max 1 µM, 7x7, partner max 10 µM)	-0.027	0.0974	0.0947	0.0199	0.0162	0.0438	0.0982	0.0557	0.0107	0.0462	0.0413	0.0221	0.0925	0.049	0.0697	0.126	0.0063	-0.0159	0.0233	0.081
COc1cc2ncnc(Nc3ccc(F)c(Cl)c3)c2cc1OCCCN1CCOCC1 [Gefitinib] + CC(C)n1c(=O)n(C)c2cnc3cc(F)c(-c4ccc(OCCCN5CCCCC5)nc4)cc3c21 [AZD1390] (first compound max 10 µM, 7x7, partner max 0.3 µM)	-0.03	-0.0608	-0.075	-0.0395	-0.046	-0.0816	-0.0254	-0.0223	-0.0676	-0.0727	-0.0466	-0.0151	0.0037	-0.025	-0.0646	-0.0619	-0.0252	-0.077	-0.0717	-0.0359
CS(=O)(=O)CCNCc1ccc(-c2ccc3ncnc(Nc4ccc(OCc5cccc(F)c5)c(Cl)c4)c3c2)o1 [Lapatinib] + C[C@@H](Oc1cc(-c2cnn(C3CCNCC3)c2)cnc1N)c1c(Cl)ccc(F)c1Cl [Crizotinib] (first compound max 10 µM, 7x7, partner max 10 µM)	-0.0824	-0.0531	-0.0294	-0.0107	-0.0063	-0.0192	-0.0087	-0.0111	-0.0226	-0.056	-0.0265	-0.0611	0.0067	0.0195	-0.05	-0.0302	-0.017	-0.0396	-0.0848	-0.0036
CC(=O)c1c(C)c2cnc(Nc3ccc(N4CCNCC4)cn3)nc2n(C2CCCC2)c1=O [Palbociclib] + CC1(C)CCC(CN2CCN(c3ccc(C(=O)NS(=O)(=O)c4ccc(NCC5CCOCC5)c([N+](=O)[O-])c4)c(Oc4cnc5[nH]ccc5c4)c3)CC2)=C(c2ccc(Cl)cc2)C1 [Venetoclax] (first compound max 10 µM, 7x7, partner max 1 µM)	-0.0487	-0.0109	-0.0784	-0.0717	-0.0481	0.0241	-0.0873	-0.0545	-0.068	-0.0344	-0.0199	0.017	-0.0179	-0.0416	-0.0841	-0.0596	-0.0445	-0.0652	-0.0189	-0.011
CC(=O)c1c(C)c2cnc(Nc3ccc(N4CCNCC4)cn3)nc2n(C2CCCC2)c1=O [Palbociclib] + Cc1c2c(nn1C)CSCc1cc(n(C)n1)CSc1cc(c3ccccc3c1)OCCCc1c(C(=O)O)n(C)c3c-2c(Cl)ccc13 [AZD5991] (first compound max 10 µM, 7x7, partner max 1 µM)	-0.0377	0.0533	-0.108	-0.0561	-0.0556	-0.0134	-0.0199	-0.0242	-0.0333	0.0193	-0.0562	0.0009	0.0076	-0.198	-0.0557	-0.126	-0.0341	-0.057	0.008	-0.069
CC(=O)c1c(C)c2cnc(Nc3ccc(N4CCNCC4)cn3)nc2n(C2CCCC2)c1=O [Palbociclib] + Cn1cnc2c(F)c(Nc3ccc(Br)cc3Cl)c(C(=O)NOCCO)cc21 [Selumetinib] (first compound max 10 µM, 7x7, partner max 10 µM)	-0.0288	0.0029	-0.0454	-0.0286	-0.0092	-0.0173	0.0392	-0.0015	-0.0255	-0.0269	-0.0057	0.0343	0.0281	-0.0683	-0.0279	0.115	-0.0207	0.001	-0.0054	-0.0062
COc1cccc(OCCCN)c1-c1cc(Nc2cnc(C#N)cn2)n[nH]1 [Prexasertib] + C=CCn1c(=O)c2cnc(Nc3ccc(N4CCN(C)CC4)cc3)nc2n1-c1cccc(C(C)(C)O)n1 [AZD1775] (first compound max 1 µM, partner max 1 µM)	0.0258	0.0026	0.0893	-0.0248	-0.0561	0.0129	0.0558	-0.0327	0.176	0.0619	0.0334	0.0569	0.0739	0.0641	0.117	0.084	-0.0054	-0.0177	0.0418	0.035
COc1cccc(OCCCN)c1-c1cc(Nc2cnc(C#N)cn2)n[nH]1 [Prexasertib] + CCc1c2c(nc3ccc(O)cc13)-c1cc3c(c(=O)n1C2)COC(=O)[C@]3(O)CC [SN-38] (first compound max 1 µM, 7x7, partner max 0.3 µM)	-0.0729	-0.0702	0.0456	-0.0729	-0.0493	-0.0489	0.035	-0.0381	0.115	0.0097	-0.0001	-0.0125	0.0915	-0.0307	0.134	-0.0233	0.0609	-0.022	-0.0201	-0.0173
